These results are taken from US6352709B1, “Localized use of nitric oxide-adducts to prevent internal tissue damage” (NitroMed, Inc., priority 1993, dated 2002).

Experiment [1] relates to [^111In]-labeled platelets. Nature of the experiment: [111In]-labeled platelet binding to balloon-injured femoral arteries. In kind it is in vivo, rabbit. The following applies: for adhesion of [^111In]-labelled platelets to injured vessels: local administration 15 minutes, 15 minutes recirculation, n=6. The procedure: Femoral arteries were isolated and balloon injured as described in Example 1. During paired local administration of polythiolated S-nitroso-albumin and polythiolated albumin, [^111In]-labeled platelets were administered intravenously and allowed to circulate after flow was reestablished in the treated arteries. [^111In]-labeled platelet binding was determined by quantification of radioactivity after flow was re-established for a period of 15 minutes. Non-specific [^111In]-labeled platelet binding (Uninjured Carotid Artery) was determined from uninjured carotid artery harvested with femoral arteries. Data are presented as mean +/− SEM per gram of wet tissue weight and are derived from six animals. *P<0.05, PS-BSA vs. pS-NO-BSA.
(§1) Animal Preparation: All animal preparations were performed within the institutional guidelines of the Brockton/West Roxbury Department of Veteran Affairs Medical Center and Boston University Medical Center, and in accordance with the guiding principles of the American Physiological Society. New Zealand white rabbits (3.5-4.2 kg) of either sex were premedicated with 5 mg/kg intramuscular (IM) xylazine hydrochlolide (Miles Pharmaceuticals, Shawnee Mission, Kans.), and 0.1 mg/kg subcutaneous (SC) atropine sulfate (Lyphomed, Deerfield, Ill.) fifteen minutes prior to the induction of anesthesia. Anesthesia was induced with 40 mg/kg IM ketamine hydrochloride (Fort Dodge Laboratories, Fort Dodge, Ind.) and 5 mg/kg IM acepromazine maleate (Aveco Company, Inc., Fort Dodge, Ind.). Additional doses of ketamine hydrochloride were administered as necessary to maintain anesthesia. For survival studies, 100,000 U penicillin G (Apothecon of Bristol-Myers Squibb, Princeton, N.J.), was administered IM perioperatively. The skin over the femoral arteries was next infiltrated with 1% lidocaine (Astra Pharmaceuticals, Inc., Westborough, Mass.) and the common femoral arteries were exposed from the inguinal ligament to the superficial femoral artery. […]

Experiment [2] relates to balloon-injured rabbit femoral artery. Nature of the experiment: Neointimal proliferation after balloon injury of femoral artery (morphometry). It counts as in vivo. The procedure: Femoral arteries were isolated and balloon injured as described below. pS-BSA or pS-NO-BSA were applied in a paired fashion directly into the arterial lumen for 15 minutes and then blood flow was re-established. […] Neointimal proliferation is reported as the absolute neointimal area in FIG. 5A and as a ratio of neointima/media in FIG. 5B in 4-6 segments from each artery. Data are expressed as mean +/− SEM and are derived from 15 vessels in the BSA and S-NO-BSA groups, 11 vessels in the PS-BSA group, 7 vessels in the PS-NO-BSA and SHAM groups, and 5 in the SNP group. *P<0.05, pS-NO-BSA vs. PS-BSA. +/+P<0.05 Sodium nitroprusside vs. pS-BSA for both FIGS. 5A and 5B.
Animal Preparation: All animal preparations were performed within the institutional guidelines of the Brockton/West Roxbury Department of Veteran Affairs Medical Center and Boston University Medical Center, and in accordance with the guiding principles of the American Physiological Society. New Zealand white rabbits (3.5-4.2 kg) of either sex were premedicated with 5 mg/kg intramuscular (IM) xylazine hydrochlolide (Miles Pharmaceuticals, Shawnee Mission, Kans.), and 0.1 mg/kg subcutaneous (SC) atropine sulfate (Lyphomed, Deerfield, Ill.) fifteen minutes prior to the induction of anesthesia. Anesthesia was induced with 40 mg/kg IM ketamine hydrochloride (Fort Dodge Laboratories, Fort Dodge, Ind.) and 5 mg/kg IM acepromazine maleate (Aveco Company, Inc., Fort Dodge, Ind.). Additional doses of ketamine hydrochloride were administered as necessary to maintain anesthesia. For survival studies, 100,000 U penicillin G (Apothecon of Bristol-Myers Squibb, Princeton, N.J.), was administered IM perioperatively. The skin over the femoral arteries was next infiltrated with 1% lidocaine (Astra Pharmaceuticals, Inc., Westborough, Mass.) and the common femoral arteries were exposed from the inguinal ligament to the superficial femoral artery. Arteries were cleared of connective tissue, side branches were ligated, and the superficial femoral artery was suspended with silk ties. A 1.5-to-2.0 cm length of femoral artery was isolated from the circulation proximally and distally with neurosurgical microaneurysm clips. The superficial femoral-artery was cannulated with a 2F Fogarty balloon catheter (American Edwards Laboratories, Santa Ana, Calif.) that was passed into the isolated segment of femoral artery. The balloon was inflated with sufficient air to generate slight resistance and withdrawn three times. A 20 g angiocath was then inserted in the arteriotomy and 1 ml of 25.8 mg/ml PS-NO-BSA or 49.2 mg/ml S-NO-BSA was administered over 15 minutes. The contralateral femoral artery was prepared identically and an appropriate control (25.8 mglml pS-BSA, 49.2 mg/ml BSA or 0.66 mg/ml sodium nitroprusside) was administered. For binding studies, 0.5 ml of [^125I]-labeled nitrosylated albumin or control was administered. Following administration of the agent, the superficial femoral artery was ligated and flow reestablished. Sham-operated animals underwent surgical exposure and sidebranch ligation, but no balloon injury was performed or local delivery administered. The area of balloon injury was marked by surgical staples in the adjacent muscle fascia. For chronic studies, the incision was closed with subcuticular absorbable suture and the animals allowed to recover. For acute studies, blood was allowed to circulate through the treated areas for 15 minutes prior to vessel harvest. In some experiments, a distant control vessel, the right carotid artery, was isolated and harvested without any other manipulation.
A 7F plastic cannula was inserted into the abdominal aorta and the vessels perfused clear with saline followed by fixation at 100 mm Hg pressure with 10% buffered formalin. The vessels were stored in 10% buffered formalin and the samples paraffin-embedded and microtome-sectioned. […]

The subject of experiment [3] is proliferating cell nuclear antigen. The experiment is described as follows: PCNA staining of proliferating cells 7 days after balloon injury. It counts as in vivo, rabbit. To be noted: 7 days after injury. The procedure:
In a separate set of animals, vessels were perfusion-fixed with 10% buffered formalin seven days after injury and processed for analysis of proliferating cells within 12 hours as described above. Sections were stained for proliferating cell nuclear antigen and adjacent sections were stained with hematoxylin and eosin. Five representative sections from each segment were examined. Total nuclei were counted from the hematoxylin and eosin slides and percent PCNA positive cells were defined as the number of PCNA-positive nuclei divided by the total number of nuclei multiplied by 100.

For experiment [4], the system named is platelet cGMP. The experiment is described as follows: Platelet cGMP in platelet-rich plasma exposed ex vivo to treated vessel rings. The following applies: one-minute exposure of PRP to treated vessel rings, 10 μM isobutylmethylxanthine, n=14. It counts as cell-based, human. The procedure:
Rabbit femoral arteries were isolated and balloon-injured as described with reference to FIG. 4. After paired local administration of polythiolated S-nitroso-albumin and polythiolated albumin for 15 minutes, the vessels were harvested and divided into 2 mm rings. The rings were then immersed in 100 μl of platelet-rich plasma containing 10 μM 3-isobutyl-1-methylxanthine and were incubated for 1 minute ex-vivo. An equal volume of ice-cold 10% trichloroacetic acid was added to each aliquot and the sample vortexed. Platelet cGMP assay was then performed as described in “Methods.” Data are expressed as mean +/− SEM. *P<0.05.
cGMP analysis: Whole blood was obtained from fasting human volunteers and platelet-rich plasma (PRP) was prepared by centrifugation. Platelet counts were determined using a Coulter counter model ZM (Coulter Diagnostics, Hileah, Fla.). After balloon injury and treatment with pS-NO-BSA or PS-BSA, arterial segments were harvested and 2-mm segments were incubated with 100 μl of PRP containing 10 μM isobutylmethylxanthine. After 1 minute, an equal volume of ice-cold 10% trichloroacetic acid was added to each aliquot and the sample vortexed. Enzyme-linked immunoassay of cGMP was then performed (Cayman Chemical Company, Ann Arbor, Mich.). […]

The subject of experiment [5] is vessel cGMP. Nature of the experiment: Vessel tissue cGMP after local treatment of balloon-injured artery. In kind it is in vivo, rabbit. To be noted: treated balloon-injured vessel segments, n=3. The procedure:
cGMP analysis: Whole blood was obtained from fasting human volunteers and platelet-rich plasma (PRP) was prepared by centrifugation. Platelet counts were determined using a Coulter counter model ZM (Coulter Diagnostics, Hileah, Fla.). After balloon injury and treatment with pS-NO-BSA or PS-BSA, arterial segments were harvested and 2-mm segments were incubated with 100 μl of PRP containing 10 μM isobutylmethylxanthine. After 1 minute, an equal volume of ice-cold 10% trichloroacetic acid was added to each aliquot and the sample vortexed. Enzyme-linked immunoassay of cGMP was then performed (Cayman Chemical Company, Ann Arbor, Mich.). Separate 2 mm vessel segments were also assayed for tissue CGMP after treatment with ice-cold 10% trichloroacetic acid and sonication (Heat Systems-Utrasonics, Inc., Plainview, N.Y.).

Experiment [6] has as its system balloon-injured rabbit femoral artery. The experiment is described as follows: [125I]-S-NO-BSA binding to balloon-injured femoral artery. In kind it is in vivo. The procedure:
Rabbit femoral arteries were isolated and balloon-injured as described in Example 1 and [^125I]-S-NO-BSA applied either directly into the injured artery (local) or injected intraarterially via the opposite femoral artery (systemic). [^125I]-S-NO-BSA binding was determined by quantification of radioactivity after flow was reestablished for a period of 15 minutes. Non-specific [^125I]-S-NO-BSA binding (sham) was determined from uninjured carotid artery harvested simultaneously with femoral arteries. Data are presented as mean +/− SEM per gram of wet tissue weight, and are derived from four animals. *P<0.0.029, local vs. systemic delivery and +/+P<0.05, systemic injured vs. sham.
Preparation of [^125I]-labeled S-NO-BSA and [^111In] labeled platelets: BSA (0.1 mg/ml) was combined with two IODO-BEADS and 0.1 mCi of Na[^125I]. The solution was incubated for 45 minutes and unincorporated Na[^125I] was removed by gel filtration with Sephadex G25 equilibrated with TBS containing 0.1 mg/ml BSA. […] [^111In]-labeling of platelets was performed after the method of Wistow and colleagues.^(17)
as §1, with “perioperatively.” for “perioperatively. The skin over the femoral arteries was next infiltrated with 1% lidocaine (Astra Pharmaceuticals, Inc., Westborough, Mass.) and the common femoral arteries were exposed from the inguinal ligament to the superficial femoral artery.”

[7] abbreviates: 14 days after balloon injury, local delivery 15 minutes.
Where [8] appears, read: 14 days after balloon injury, n=7.

On to “pS-NO-BSA: polythiolated S-nitroso-albumin; thiolated BSA nitrosylated with NaNO2 in HCl”, for which the “adhesion of [^111In]-labelled platelets to injured vessels” value in experiment [1] is recorded as 16.3+/−6.2 ×10^3 cpm/gm. Besides, in experiment [1] (local administration, injured femoral artery), the “reduction of platelet adhesion compared to control” value is given as “over four-fold”. In experiment [2] (7 days after injury, n=5), the neointima/media ratio amounted to 0.032±0.005 and the neointimal area was 0.124±0.06 ×10^5 μm^2. Further, in experiment [2] (setting [7]), the neointima/media ratio is 0.196 +/−0.66 and the neointimal area is 0.41+/−0.11 ×10^5 μm^2. In addition, in experiment [2] (setting [8]), the “reduction of neointima/media ratio vs control” value was 77% and the “reduction of neointimal area vs control” value was found to be 81%. In addition, in experiment [3], the “percent of proliferating (PCNA positive) cells” value was determined as 37.8% +/−5.9. Moreover, the “platelet cGMP” value in experiment [4] is on record as 19.9+/−3.3 pmol 10^8 platelets. For the same substance, the “vessel cGMP levels” value in experiment [5] is given as 0.48+/−0.46 pmol/mg protein.

“[^125I]-S-NO-BSA: [125I]-labeled S-nitroso-albumin used for binding studies”: the “binding to injured femoral artery, local delivery” value in experiment [6] (applied directly into injured artery, 15 minutes flow, n=4) was 140.4+/−3.9 ×10^3 cpm/gm. For the same substance, the “binding to injured femoral artery, systemic delivery” value in experiment [6] (injected intraarterially via opposite femoral artery, 15 minutes flow, n=4) is listed as 5.4+/−0.9 ×10^3 cpm/gm. Further, in experiment [6] (injured femoral artery), the “increase in binding, local vs systemic delivery” value is 26 fold.

Turning to “pS-BSA: thiolated bovine serum albumin, non-nitrosylated control for pS-NO-BSA [reference compound]”, the “adhesion of [^111In]-labelled platelets to injured vessels” value in experiment [1] is recorded as 71.3+/−40.4 ×10^3 cpm/gm. In addition, the neointima/media ratio in experiment [2] (7 days after injury, n=5) is 0.068±0.027; in experiment [2] (setting [7]), 0.85+/−0.122. In addition, the neointimal area in experiment [2] (7 days after injury, n=5) was 0.258+/−0.19 ×10^5 μm^2; in experiment [2] (setting [7]), 2.24+/−0.328 ×10^5 μm^2. Besides, in experiment [3], the “percent of proliferating (PCNA positive) cells” value was 30.1% +/−5.9. Also, the “platelet cGMP” value in experiment [4] is on record as 4.11+/−0.9 pmol 10^8 platelets. Further, the “vessel cGMP levels” value in experiment [5] is 0.283+/−0.23 pmol/mg protein.
